Experimental data as given in patent US20260144251A1, “ANTIMICROBIAL NANOCLAYS COMPRISING CATIONIC ANTIMICROBIALS, METHOD OF PREPARATION AND USES THEREOF” (Polyamyna Nanotech Inc., priority 2019, published 2026).
In brackets after ≈: the same amount, converted by molar mass. Where two headings read alike, the source gives them in different places.

Columns and labels:
Experiment in all cases: MIC, microbroth dilution method
MRSA (SA001) = format: cell-based, Staphylococcus aureus
Protocol: (§1) The antimicrobial activity (minimum inhibitory concentration, MIC) was evaluated by employing microbroth dilution method to determine the lowest concentration of the assayed antimicrobial additive material.

P. aeruginosa (PA07) = format: cell-based
Protocol: as §1

A. baumannii (AB034) = format: cell-based
Protocol: as §1

E. coli (K12) = format: cell-based
Protocol: as §1

E. cloacae (EB5) = format: cell-based
Protocol: as §1

K. pneumoniae (KP001) = format: cell-based
Protocol: as §1

MRSA (SA004) = format: cell-based, Staphylococcus aureus
Protocol: as §1

A. baumannii (AB30) = format: cell-based
Protocol: as §1

E. coli (E524) = format: cell-based; settings: Escherichia coli
Protocol: as §1

Row | Compound | MIC (MRSA (SA001)) | MIC (P. aeruginosa (PA07)) | MIC (A. baumannii (AB034)) | MIC (E. coli (K12)) | MIC (E. cloacae (EB5)) | MIC (K. pneumoniae (KP001)) | MIC (MRSA (SA004); Staphylococcus aureus, read-out: MIC) | MIC (A. baumannii (AB30); Acinetobacter baumannii, read-out: MIC) | MIC (E. coli (E524)) | MIC (P. aeruginosa (PA07); Pseudomonas aeruginosa, read-out: MIC) | MIC (E. cloacae (EB5); Enterobacter cloacae, read-out: MIC) | MIC (K. pneumoniae (KP001); Klebsiella pneumoniae, read-out: MIC) | MIC (MRSA (SA004)) | MIC (A. baumannii (AB30))
1 | [Ag] [Ag, Silver] | 8 µg/mL | 2 µg/mL | 8 µg/mL | 2 µg/mL | 32 µg/mL | 8 µg/mL |  |  |  |  |  |  |  | 
2 | [H]/N=C(\N/C(=N/[H])NCCCCCCNC(=N)NC(=N)Nc1ccc(Cl)cc1)Nc1ccc(Cl)cc1 [Chlorhexidine] |  |  |  |  |  |  | 8 µg/mL (≈ 15.8 µM) | 256 µg/mL (≈ 506 µM) | 2 µg/mL (≈ 3.96 µM) | 16 µg/mL (≈ 31.7 µM) | 8 µg/mL (≈ 15.8 µM) | < 0.5 µg/mL |  | 
3 | Benzalkonium chloride [BAC] | 1 µg/mL | 32 µg/mL | 2 µg/mL | 16 µg/mL | 8 µg/mL | 4 µg/mL |  |  |  |  |  |  |  | 
4 | Neomycin |  | 128 µg/mL |  |  | 4 µg/mL |  |  |  |  |  |  |  | 4 µg/mL | 8 µg/mL
